Experimental data from patent publication US20130252930A1 (BIOMARIN PHARMACEUTICAL INC., priority 2010, published 2013).

These compounds were tested against T1, CYP17 (human testicular microsome) (Homo sapiens, UniProt P05093) (assay: CYP17 enzymatic assay (% inhibition at 1 nM) (Biological Example 12)). Conditions: compound at 1 nM, read-out: Biological Example No. 12: CYP17 enzymatic assay % inhibition at 1 nM.
T1 construct: using microsomal fraction from human testis (Celsis Cat #S00110) as the enzyme source; tissue Celsis S00110; host or cells: human testis microsomal fraction
T1 sequence (P05093 1-508): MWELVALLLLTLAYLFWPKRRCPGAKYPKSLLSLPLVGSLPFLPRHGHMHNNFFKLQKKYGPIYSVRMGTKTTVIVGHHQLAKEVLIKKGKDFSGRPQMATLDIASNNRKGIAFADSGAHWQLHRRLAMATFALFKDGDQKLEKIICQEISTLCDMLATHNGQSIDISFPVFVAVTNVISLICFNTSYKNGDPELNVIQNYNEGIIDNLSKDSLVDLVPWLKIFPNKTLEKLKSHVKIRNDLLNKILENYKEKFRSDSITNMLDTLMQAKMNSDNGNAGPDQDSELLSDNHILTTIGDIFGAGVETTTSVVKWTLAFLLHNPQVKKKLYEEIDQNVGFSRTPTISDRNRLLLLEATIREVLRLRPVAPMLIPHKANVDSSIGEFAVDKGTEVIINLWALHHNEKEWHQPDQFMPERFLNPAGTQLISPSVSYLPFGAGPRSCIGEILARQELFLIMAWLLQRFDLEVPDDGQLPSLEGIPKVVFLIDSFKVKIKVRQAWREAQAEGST
Assay type: biochemical

Compound	inhibition at 0.001 µM [%]
C[C@H]1C2CCC3C(CC[C@]4(C)C(c5cncc(C(F)F)c5)=CCC34)[C@@]2(C)CC[C@@H]1O (stereo partly drawn) [Compound 307, (3S,4S,10R,13S)-17-(5-(difluoromethyl)pyridin-3-yl)-4,10,13-trimethyl-2,3,4,5,6,7,8,9,10,11,12,13,14,15-tetradecahydro-1H-cyclopenta[a]phenanthren-3-ol]	10 to 50
C[C@H]1C2CCC3C(CC[C@]4(C)C(c5cncc(C(F)F)c5)=CCC34)[C@@]2(C)CC[C@H]1O (stereo partly drawn) [Compound 308, (3R,4S,10R,13S)-17-(5-(difluoromethyl)pyridin-3-yl)-4,10,13-trimethyl-2,3,4,5,6,7,8,9,10,11,12,13,14,15-tetradecahydro-1H-cyclopenta[a]phenanthren-3-ol]	< 10
CC1=C2CCC3C(CC[C@]4(C)C(c5cccnc5)=CCC34)[C@@]2(C)CC/C1=N\O (stereo partly drawn) [Compound 364, (10R,13S,E)-4,10,13-trimethyl-17-(pyridin-3-yl)-6,7,8,9,10,11,12,13,14,15-decahydro-1H-cyclopenta[a]phenanthren-3(2H)-one oxime]	10 to 50
C[C@]12CC(O)CC1CCC1C2CC[C@]2(C)C(c3cncc(Cl)c3)=CCC12 (stereo partly drawn) [Compound 397, (3aS,5aS)-6-(5-chloropyridin-3-yl)-3a,5a-dimethyl-1,2,3,3a,3b,4,5,5a,8,8a,8b,9,10,10a-tetradecahydrodicyclopenta[a,f]naphthalen-2-ol]	10 to 50
C[C@]12CC[C@H]3[C@@H](CCC45CC4C(O)CC[C@]35C)[C@@H]1CC=C2c1cncc(F)c1 (stereo partly drawn) [Compound 412, (4aR,6aS)-7-(5-fluoropyridin-3-yl)-4a,6a-dimethyl-1a,2,3,4,4a,4b,5,6,6a,9,9a,9b,10,11-tetradecahydro-1H-cyclopenta[a]cyclopropa[j]phenanthren-2-ol]	10 to 50
CC(=O)NC1CC[C@@]2(C)C(CCC3C2CC[C@]2(C)C(c4cccnc4)=CCC32)C1C (stereo partly drawn) [Compound 413, N-((10R,13S)-4,10,13-trimethyl-17-(pyridin-3-yl)-2,3,4,5,6,7,8,9,10,11,12,13,14,15-tetradecahydro-1H-cyclopenta[a]phenanthren-3-yl)acetamide]	< 10
CCNC(=O)NC1CC[C@@]2(C)C(CCC3C2CC[C@]2(C)C(c4cccnc4)=CCC32)C1C (stereo partly drawn) [Compound 414, 1-ethyl-3-((10R,13S)-4,10,13-trimethyl-17-(pyridin-3-yl)-2,3,4,5,6,7,8,9,10,11,12,13,14,15-tetradecahydro-1H-cyclopenta[a]phenanthren-3-yl)urea]	< 10
CC1C[C@@]2(C)C(CC[C@@H]3[C@@H]2CC[C@]2(C)C(c4cccnc4)=CC[C@@H]32)C(C)C1=O (stereo partly drawn) [Compound 415, (10R,13S)-2,4,10,13-tetramethyl-17-(pyridin-3-yl)-4,5,6,7,8,9,10,11,12,13,14,15-dodecahydro-1H-cyclopenta[a]phenanthren-3(2H)-one]	< 10
CC1C[C@@]2(C)C(CC[C@@H]3[C@@H]2CC[C@]2(C)C(c4cccnc4)=CC[C@@H]32)C(C)C1O (stereo partly drawn) [Compound 416, (10R,13S)-2,4,10,13-tetramethyl-17-(pyridin-3-yl)-2,3,4,5,6,7,8,9,10,11,12,13,14,15-tetradecahydro-1H-cyclopenta[a]phenanthren-3-ol]	10 to 50
CC1(O)C=C2CC[C@@H]3[C@H](CC[C@]4(C)C(c5cccnc5)=CC[C@@H]34)[C@@]2(C)CC1 (stereo partly drawn) [Compound 422, (10R,13S)-3,10,13-trimethyl-17-(pyridin-3-yl)-2,3,6,7,8,9,10,11,12,13,14,15-dodecahydro-1H-cyclopenta[a]phenanthren-3-ol]	10 to 50
CC1C[C@@H]2[C@H](CC[C@]3(C)C(c4cccnc4)=CC[C@@H]23)[C@@]2(C)CCC(C)(O)C=C12 (stereo partly drawn) [Compound 423, (10R,13S)-3,6,10,13-tetramethyl-17-(pyridin-3-yl)-2,3,6,7,8,9,10,11,12,13,14,15-dodecahydro-1H-cyclopenta[a]phenanthren-3-ol]	10 to 50
CC1CC2C(CC[C@]3(C)C(c4cccnc4)=CCC23)[C@@]2(C)CC[C@@](C)(O)CC12 (stereo partly drawn) [Compound 424, (3R,10S,13S)-3,6,10,13-tetramethyl-17-(pyridin-3-yl)-2,3,4,5,6,7,8,9,10,11,12,13,14,15-tetradecahydro-1H-cyclopenta[a]phenanthren-3-ol]	10 to 50
CC1CC2C(CC[C@]3(C)C(c4cccnc4)=CCC23)[C@@]2(C)CC[C@](C)(O)CC12 (stereo partly drawn) [Compound 425, (3S,10S,13S)-3,6,10,13-tetramethyl-17-(pyridin-3-yl)-2,3,4,5,6,7,8,9,10,11,12,13,14,15-tetradecahydro-1H-cyclopenta[a]phenanthren-3-ol]	10 to 50
CN1C(=O)CC[C@@]2(C)C1=CCC1C2CC[C@]2(C)C(c3cncc(C(F)F)c3)=CCC12 (stereo partly drawn) [Compound 429, (4aR,6aS)-7-(5-(difluoromethyl)pyridin-3-yl)-1,4a,6a-trimethyl-4,4a,4b,5,6,6a,9,9a,9b,10-decahydro-1H-indeno[5,4-f]quinolin-2(3H)-one]	< 10
CN1C(=O)CC[C@@]2(C)C1=CC[C@@H]1[C@@H]2CC[C@]2(C)C(c3cnccc3F)=CC[C@@H]12 [Compound 430, (4aR,6aS)-7-(4-fluoropyridin-3-yl)-1,4a,6a-trimethyl-4,4a,4b,5,6,6a,9,9a,9b,10-decahydro-1H-indeno[5,4-f]quinolin-2(3H)-one]	10 to 50
C[C@]12CCC(O)(CCCO)CC1CC[C@@H]1[C@@H]2CC[C@]2(C)C(c3cccnc3)=CC[C@@H]12 (stereo partly drawn) [Compound 440, (10S,13S)-3-(3-hydroxypropyl)-10,13-dimethyl-17-(pyridin-3-yl)-2,3,4,5,6,7,8,9,10,11,12,13,14,15-tetradecahydro-1H-cyclopenta[a]phenanthren-3-ol]	10 to 50

Same assay, conditions: compound at 1 nM, read-out: CYP17 enzymatic assay % inhibition at 1 nM (Biological Example No. 12)

Compound	inhibition at 0.001 µM [%]
C[C@]12CCC3C(CC4OC45C[C@@H](O)CC[C@]35C)C1=CC=C2c1cccnc1 (stereo partly drawn) [Compound 439, (3S,9aS,11bR)-9a,11b-dimethyl-9-(pyridin-3-yl)-1,2,3,4,5a,6,6a,9a,10,11,11a,11b-dodecahydrocyclopenta[1,2]phenanthro[8a,9-b]oxiren-3-ol]	> 50
COC1CC[C@@]2(C)C(=CCC3C2CC[C@]2(C)C(c4cccnc4)=CCC32)C1 (stereo partly drawn) [Compound 453, 3-((10R,13S)-3-methoxy-10,13-dimethyl-2,3,4,7,8,9,10,11,12,13,14,15-dodecahydro-1H-cyclopenta[a]phenanthren-17-yl)pyridine]	< 10
COC1CC[C@@]2(C)C(=CCC3C2CC[C@]2(C)C(c4cncc(C)c4)=CCC32)C1 (stereo partly drawn) [Compound 454, 3-((10R,13S)-3-methoxy-10,13-dimethyl-2,3,4,7,8,9,10,11,12,13,14,15-dodecahydro-1H-cyclopenta[a]phenanthren-17-yl)-5-methylpyridine]	< 10
CCc1cncc(C2=CC[C@H]3[C@@H]4CC[C@H]5C[C@@H](OC)CC[C@]5(C)[C@H]4CC[C@]23C)c1 [Compound 455, 3-ethyl-5-((3S,5S,8R,9S,10S,13S,14S)-3-methoxy-10,13-dimethyl-2,3,4,5,6,7,8,9,10,11,12,13,14,15-tetradecahydro-1H-cyclopenta[a]phenanthren-17-yl)pyridine]	10 to 50
COc1cncc(C2=CC[C@H]3[C@@H]4CC[C@H]5C[C@@H](OC)CC[C@]5(C)[C@H]4CC[C@]23C)c1 [Compound 456, 3-methoxy-5-((3S,5S,8R,9S,10S,13S,14S)-3-methoxy-10,13-dimethyl-2,3,4,5,6,7,8,9,10,11,12,13,14,15-tetradecahydro-1H-cyclopenta[a]phenanthren-17-yl)pyridine]	10 to 50
CCOc1cncc(C2=CC[C@H]3[C@@H]4CC[C@H]5C[C@@H](OC)CC[C@]5(C)[C@H]4CC[C@]23C)c1 [Compound 457, 3-ethoxy-5-((3S,5S,8R,9S,10S,13S,14S)-3-methoxy-10,13-dimethyl-2,3,4,5,6,7,8,9,10,11,12,13,14,15-tetradecahydro-1H-cyclopenta[a]phenanthren-17-yl)pyridine]	10 to 50
CO[C@H]1CC[C@@]2(C)[C@@H](CC[C@@H]3[C@@H]2CC[C@]2(C)C(c4cnccc4C)=CC[C@@H]32)C1 [Compound 458, 3-((3S,5S,8R,9S,10S,13S,14S)-3-methoxy-10,13-dimethyl-2,3,4,5,6,7,8,9,10,11,12,13,14,15-tetradecahydro-1H-cyclopenta[a]phenanthren-17-yl)-4-methylpyridine]	10 to 50

Same assay, conditions: test compound at 1 nM, read-out: CYP17 enzymatic assay percent inhibition at 1 nM (Biological Example No. 12)

inhibition at 0.001 µM [%]	Compound
10 to 50	CC1(O)CC2CC[C@@H]3[C@H](CC[C@]4(C)C(c5cccnc5)=CC[C@@H]34)[C@@]2(C)C1 (stereo partly drawn) [Compound 400, (3aS,5aS)-2,3a,5a-trimethyl-6-(pyridin-3-yl)-1,2,3,3a,3b,4,5,5a,8,8a,8b,9,10,10a-tetradecahydrodicyclopenta[a,f]naphthalen-2-ol]
10 to 50	C[C@]12CC(F)(F)CC1CCC1C2CC[C@]2(C)C(c3cccnc3)=CCC12 (stereo partly drawn) [Compound 407, 3-((8aS,10aS)-7,7-difluoro-8a,10a-dimethyl-3,3a,3b,4,5,5a,6,7,8,8a,8b,9,10,10a-tetradecahydrodicyclopenta[a,f]naphthalen-1-yl)pyridine]
